Experiment [1] has as its target ALPK1 (Homo sapiens (Human), UniProt Q96QP1). As to the kind of experiment: ALPK1 in vitro kinase assay (HTRF of TIFA phosphorylation). The class given is biochemical.
For experiment [2], the system named is ALPK1-dependent NFκB reporter gene activation in HEK293 cells stably expressing an NF-kB reporter (G9 cells). As to the kind of experiment: NFκB gene reporter alkaline phosphatase assay. It is filed as cell-based. As to conditions: Homo sapiens, HEK293; read-out: NFkB assay IC50. In short, it runs like this: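 Compounds, serially diluted, were added to attached HEK293-derived G9 reporter cells for 30 min prior to stimulation with the fluoro-heptose ADP agonist. Secreted alkaline phosphatase was quantified colorimetrically using pNPP.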

Sequence of ALPK1 (Q96QP1 whole entry): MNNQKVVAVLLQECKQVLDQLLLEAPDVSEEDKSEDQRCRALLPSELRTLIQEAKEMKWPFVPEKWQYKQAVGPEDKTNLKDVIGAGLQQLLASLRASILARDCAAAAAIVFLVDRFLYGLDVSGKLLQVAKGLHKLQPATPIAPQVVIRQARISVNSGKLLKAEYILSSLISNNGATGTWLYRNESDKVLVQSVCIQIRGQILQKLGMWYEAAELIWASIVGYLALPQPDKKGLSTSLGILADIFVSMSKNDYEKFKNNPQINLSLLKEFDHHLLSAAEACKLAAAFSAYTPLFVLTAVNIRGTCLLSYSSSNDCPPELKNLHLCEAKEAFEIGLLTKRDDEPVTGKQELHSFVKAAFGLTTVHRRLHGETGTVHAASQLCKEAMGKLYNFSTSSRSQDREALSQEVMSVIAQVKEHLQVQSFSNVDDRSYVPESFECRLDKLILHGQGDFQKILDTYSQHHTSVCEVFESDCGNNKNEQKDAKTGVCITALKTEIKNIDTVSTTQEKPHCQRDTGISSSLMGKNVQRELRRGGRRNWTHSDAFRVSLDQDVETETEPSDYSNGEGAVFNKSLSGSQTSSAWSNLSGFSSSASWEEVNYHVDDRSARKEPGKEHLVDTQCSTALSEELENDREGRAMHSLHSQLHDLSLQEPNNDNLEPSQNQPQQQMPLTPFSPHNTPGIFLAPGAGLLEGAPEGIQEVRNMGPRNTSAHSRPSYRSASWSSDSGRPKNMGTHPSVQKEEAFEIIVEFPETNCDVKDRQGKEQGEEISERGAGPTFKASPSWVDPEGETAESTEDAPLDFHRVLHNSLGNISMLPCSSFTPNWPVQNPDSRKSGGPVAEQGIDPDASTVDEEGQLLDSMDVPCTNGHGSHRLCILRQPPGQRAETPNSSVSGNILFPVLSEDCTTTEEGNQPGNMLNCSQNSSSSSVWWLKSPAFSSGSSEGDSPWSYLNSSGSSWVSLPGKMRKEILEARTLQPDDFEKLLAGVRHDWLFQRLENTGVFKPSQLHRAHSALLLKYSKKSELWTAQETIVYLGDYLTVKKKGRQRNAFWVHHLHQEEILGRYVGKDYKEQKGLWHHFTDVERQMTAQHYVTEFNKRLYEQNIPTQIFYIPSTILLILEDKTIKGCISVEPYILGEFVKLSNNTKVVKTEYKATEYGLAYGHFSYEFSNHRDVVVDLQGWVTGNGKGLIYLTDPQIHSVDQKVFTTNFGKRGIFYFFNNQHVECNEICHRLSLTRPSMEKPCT

On to `COc1ccc(C(C)(C)c2csc(NC(=O)NCc3ccc(C(=O)NCCN)nc3)n2)cc1` [Example A203, N-(2-aminoethyl)-5-((3-(4-(2-(4-methoxyphenyl)propan-2-yl)thiazol-2-yl)ureido)methyl)picolin-amide], for which the 50% inhibitory concentration (IC50) was 94 nM in experiment [1] and 5700 nM in experiment [2].

On to `C#C[C@](C)(c1ccc(Cl)cc1)c1csc(NC(=O)NCCC(C)(C)O)n1` [Example A250, (R)-1-(4-(2-(4-chlorophenyl)but-3-yn-2-yl)thiazol-2-yl)-3-(3-hydroxy-3-methylbutyl)urea], for which the half-maximal inhibitory concentration (IC50) in experiment [1] amounted to 417 nM; in experiment [2] it was 1180 nM.

In the case of `NC1CCN(c2ccc(CNC(=O)Nc3nc(C4(c5ccc(Br)cc5)CCCC4)cs3)cc2)CC1` [Example A191, 1-(4-(4-aminopiperidin-1-yl)benzyl)-3-(4-(1-(4-bromophenyl)cyclopent-yl)thiazol-2-yl)urea], the half-inhibitory concentration (IC50) came out at 80 nM in experiment [1] and 6910 nM in experiment [2].

As to `CC(C)(c1ccc(Br)cc1)c1csc(NC(=O)NCc2ccc(CN3CCNCC3)cc2)n1` [Example A026, 1-(4-(2-(4-bromophenyl)propan-2-yl)thiazol-2-yl)-3-(4-(piperazin-1-ylmethyl)benzyl)urea], the half-maximal inhibitory concentration (IC50) is 117 nM in experiment [1] and 1250 nM in experiment [2].

Take `COc1ccc(C(C)(C)c2csc(NC(=O)NCc3ccc(C4CCNCC4)c(F)c3)n2)cc1` [Example A224, 1-(3-fluoro-4-(piperidin-4-yl)benzyl)-3-(4-(2-(4-methoxyphenyl)propan-2-yl)thiazol-2-yl)urea]: the concentration for half-maximal inhibition (IC50) in experiment [1] was 21 nM; in experiment [2] it was 730 nM.

Take `Cc1cc(CNC(=O)Nc2nc(C(C)(C)c3ccc(Br)cc3)cs2)ccc1N1CCNCC1` [Example A096, 1-(4-(2-(4-bromophenyl)propan-2-yl)thiazol-2-yl)-3-(3-methyl-4-(piperazin-1-yl)benzyl)urea]: the concentration for half-maximal inhibition (IC50) in experiment [1] was 69 nM; in experiment [2] it was 1430 nM.

Regarding `CC(C)(c1ccc(Br)cc1)c1csc(NC(=O)NCc2ccc(OCC(=O)N3CCNCC3)cc2)n1` [Example A033, 1-(4-(2-(4-bromophenyl)propan-2-yl)thiazol-2-yl)-3-(4-(2-oxo-2-(piperazin-1-yl)ethoxy)benzyl)urea], the concentration for half-maximal inhibition (IC50) in experiment [1] is 80 nM; in experiment [2], 3190 nM.

`C#C[C@](C)(c1ccc(Cl)cc1)c1csc(NC(=O)NC[C@@H](O)CO)n1` [Example A301, 1-(4-(2-(4-chlorophenyl)but-3-yn-2-yl)thiazol-2-yl)-3-((R)-2,3-dihydroxypropyl)urea]: the IC50 was found to be 354 nM in experiment [1] and 2220 nM in experiment [2].

For `C#C[C@](C)(c1ccc(F)cc1)c1csc(NC(=O)NCCS(N)(=O)=O)n1` [Example A284, 2-(3-(4-(2-(4-fluorophenyl)but-3-yn-2-yl)thiazol-2-yl)ureido)ethanesulfona-mide], the IC50 in experiment [1] came out at 666 nM; in experiment [2], 2600 nM.

For `COc1ccc(C(C)(C)c2csc(NC(=O)NCc3ccc(C(=O)NCCN)cc3)n2)cc1` [Example A218, N-(2-aminoethyl)-4-((3-(4-(2-(4-methoxyphenyl)propan-2-yl)thiazol-2-yl)ureido)methyl)benza-mide], the 50% inhibitory concentration (IC50) in experiment [1] was determined as 29 nM; in experiment [2], 6710 nM.

`COc1ccc(C(C)(C)c2csc(NC(=O)NCc3ccc(N4CCNCC4)c(F)c3)n2)cc1` [Example A054, 1-(3-fluoro-4-(piperazin-1-yl)benzyl)-3-(4-(2-(4-methoxyphenyl)propan-2-yl)thiazol-2-yl)urea]: the IC50 stood at 30 nM in experiment [1] and 880 nM in experiment [2].

Take `COc1ccc(C(C)(C)c2csc(NC(=O)NCc3ccc(N4CCNCC4)c(CO)c3)n2)cc1` [Example A058, 1-(3-(hydroxymethyl)-4-(piperazin-1-yl)benzyl)-3-(4-(2-(4-methoxyphenyl)propan-2-yl)thiazol-2-yl)urea]: the 50% inhibitory concentration (IC50) in experiment [1] stood at 130 nM; in experiment [2], 3100 nM.

Turning to `CC(C)NC(=O)Nc1nc(C(C)(C)c2ccc(Br)cc2)cs1` [Example A125, 1-(4-(2-(4-bromophenyl)propan-2-yl)thiazol-2-yl)-3-isopropylurea], the concentration for half-maximal inhibition (IC50) in experiment [1] is 28 nM; in experiment [2] it was 2800 nM.

Take `CCNC(=O)Nc1nc(C(C)(C)c2ccc(OC)cc2)cs1` [Example A242, 1-ethyl-3-(4-(2-(4-methoxyphenyl)propan-2-yl)thiazol-2-yl)urea]: the half-maximal inhibitory concentration (IC50) in experiment [1] was found to be 42 nM; in experiment [2], 980 nM.

Consider `C#CC(C)(c1ccc(Br)cc1)c1csc(NC(=O)NCC2(O)CCNCC2)n1` (centres unmarked) [Example A238, 1-(4-(2-(4-bromophenyl)but-3-yn-2-yl)thiazol-2-yl)-3-((4-hydroxypiperidin-4-yl)methyl)urea], for which the IC50 in experiment [1] was 19 nM; in experiment [2], 27000 nM.

Turning to `CCC(C)(c1ccc(OC)cc1)c1csc(NC(=O)NC(C)c2ccc(N3CCNCC3)cc2)n1` (centres unmarked) [Example A076, 1-(4-(2-(4-methoxyphenyl)butan-2-yl)thiazol-2-yl)-3-(1-(4-(piperazin-1-yl)phenyl)ethyl)urea], the IC50 is 147 nM in experiment [1] and 4480 nM in experiment [2].

`CC(C)(c1ccc(Br)cc1)c1csc(NC(=O)NCc2ccc(N3CCNCC3)c(C(N)=O)c2)n1` [Example A052, 5-((3-(4-(2-(4-bromophenyl)propan-2-yl)thiazol-2-yl)ureido)methyl)-2-(piperazin-1-yl)benzamide]: the IC50 came to 24 nM in experiment [1] and 1960 nM in experiment [2].

Consider `COc1ccc(C(C)(C)c2csc(NC(=O)NC(C)c3ccc(N4CCNCC4)nc3)n2)cc1` (centres unmarked) [Example A001, 1-(4-(2-(4-methoxyphenyl)propan-2-yl)thiazol-2-yl)-3-(1-(6-(piperazin-1-yl)pyridin-3-yl)ethyl)urea], for which the IC50 in experiment [1] was found to be 58 nM; in experiment [2], 670 nM.

In the case of `CC(C)(c1ccc(Br)cc1)c1csc(NC(=O)NCCF)n1` [Example A020, 1-(4-(2-(4-bromophenyl)propan-2-yl)thiazol-2-yl)-3-(2-fluoroethyl)urea], the IC50 in experiment [1] is 144 nM; in experiment [2], 6790 nM.

As for `COc1ccc(C(C)(C)c2csc(NC(=O)NCc3cnc(N4CCNCC4)nc3)n2)cc1` [Example A086, 1-(4-(2-(4-methoxyphenyl)propan-2-yl)thiazol-2-yl)-3-((2-(piperazin-1-yl)pyrimidin-5-yl)methyl)urea], the figures for the IC50 in experiment [1] and in experiment [2] were 16 nM and 390 nM, respectively.

As for `COc1ccc(C(C)(C)c2csc(NC(=O)NCc3ccc(NC4CCN(C)CC4)nc3)n2)cc1` [Example A019, 1-(4-(2-(4-methoxyphenyl)propan-2-yl)thiazol-2-yl)-3-((6-((1-methylpiperidin-4-yl)amino)pyridin-3-yl)methyl)urea], the IC50 in experiment [1] came out at 32 nM; in experiment [2], 1290 nM.

For the compound `COc1ccc(C(C)(C)c2csc(NC(=O)NCCCS(=O)(=O)N3CCC(N)C3)n2)cc1` (centres unmarked) [Example A229, 1-(3-((3-aminopyrrolidin-1-yl)sulfonyl)propyl)-3-(4-(2-(4-methoxyphenyl)propan-2-yl)thiazol-2-yl)urea], the IC50 in experiment [1] worked out at 169 nM; in experiment [2], 2270 nM.

On to `CC(C)(c1ccc(Br)cc1)c1csc(NC(=O)NCc2cnc(N3CCC(O)CC3)nc2)n1` [Example A082, 1-(4-(2-(4-bromophenyl)propan-2-yl)thiazol-2-yl)-3-((2-(4-hydroxypiperidin-1-yl)pyrimidin-5-yl)methyl)urea], for which the IC50 in experiment [1] worked out at 125 nM; in experiment [2], 6150 nM.

Take `CC(C)(c1ccc(Br)cc1)c1csc(NC(=O)NCc2ccc(N3CCC(N)CC3)cc2)n1` [Example A204, 1-(4-(4-aminopiperidin-1-yl)benzyl)-3-(4-(2-(4-bromophenyl)propan-2-yl)thiazol-2-yl)urea]: the IC50 in experiment [1] was determined as 9 nM; in experiment [2], 1890 nM.

Consider `C#CC(C)(c1ccc(Cl)cc1)c1csc(NC(=O)N2CCC(O)CC2)n1` (centres unmarked) [Example A307, N-(4-(2-(4-chlorophenyl)but-3-yn-2-yl)thiazol-2-yl)-4-hydroxypiperidine-1-carboxamide], for which the IC50 in experiment [1] was found to be 2060 nM; in experiment [2] it was 3150 nM.

On to `CC(C)(c1ccc(Br)cc1)c1csc(NC(=O)NCCCN2CCOCC2)n1` [Example A127, 1-(4-(2-(4-bromophenyl)propan-2-yl)thiazol-2-yl)-3-(3-morpholinopropyl)urea], for which the IC50 is 113 nM in experiment [1] and 940 nM in experiment [2].

Regarding `CC(NC(=O)Nc1nc(C(C)(C)c2ccc(Br)cc2)cs1)c1ccc(N2CCNCC2)cc1` (centres unmarked) [Example A073, 1-(4-(2-(4-bromophenyl)propan-2-yl)thiazol-2-yl)-3-(1-(4-(piperazin-1-yl)phenyl)ethyl)urea], the IC50 in experiment [1] worked out at 85 nM; in experiment [2], 2790 nM.

`CN1CCN(Cc2c(F)cc(CNC(=O)Nc3nc(C(C)(C)c4ccc(Br)cc4)cs3)cc2F)CC1` [Example A117, 1-(4-(2-(4-bromophenyl)propan-2-yl)thiazol-2-yl)-3-(3,5-difluoro-4-((4-methylpiperazin-1-yl)methyl)benzyl)urea]: the half-inhibitory concentration (IC50) was determined as 67 nM in experiment [1] and 5030 nM in experiment [2].

With `CC(C)(c1ccc(Br)cc1)c1csc(NC(=O)NCc2ccc(N3CCNC(=O)C3)cc2)n1` [Example A195, 1-(4-(2-(4-bromophenyl)propan-2-yl)thiazol-2-yl)-3-(4-(3-oxopiperazin-1-yl)benzyl)urea], the IC50 in experiment [1] is 132 nM; in experiment [2], 9940 nM.

As to `CC(C)(c1ccc(Br)cc1)c1csc(NC(=O)NCc2ccc(OCCCN3CCNCC3)cc2)n1` [Example A035, 1-(4-(2-(4-bromophenyl)propan-2-yl)thiazol-2-yl)-3-(4-(3-(piperazin-1-yl)propoxy)benzyl)urea], the half-inhibitory concentration (IC50) is 52 nM in experiment [1] and 2030 nM in experiment [2].

For the compound `C#C[C@@](C)(c1ccc(Br)cc1)c1csc(NC(=O)NCC(O)CO)n1` (stereo in doubt) [Example A278, 1-(4-(2-(4-bromophenyl)but-3-yn-2-yl)thiazol-2-yl)-3-(2,3-dihydroxypropyl)urea], the IC50 in experiment [1] came to 624 nM; in experiment [2], 520 nM.

As a reminder, the IC50 is the concentration needed to halve the response being measured.

The record behind these values is patent US20240109853A1 (Shanghai Yao Yuan Biotechnology Co., Ltd., priority 2020, published 2024).
